Experiment [1] concerns the target Interleukin-8 (Homo sapiens) (UniProt P10145). As to the kind of experiment: inhibitors of NFkB activation in CF airway cells, SAR follow-up, KKLEB cells, panel, IL8 HTRF, NFkB-GFP (AID 651592).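 Also: immortalized cystic fibrosis airway epithelial KKLEB cells with an NF-kB GFP reporter.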 The conditions noted are these: PAF/TNFa-induced NFkB-GFP / IL8 HTRF.
For experiment [2], the system named is IL8. Described as above. Conditions: PAF/TNFa-induced NFkB-GFP / IL8 HTRF, mean of runs, mean IC50 across panel replicates.
Test in experiment [3]: as above
Conditions: PAF/TNFa-induced NFkB-GFP / IL8 HTRF, CF-PAF assay.

Where [4] appears, read: mean of runs, mean IC50 across panel replicates.

Bounds are passed on as bounds.

Chain of Interleukin-8 (Homo sapiens) (P10145 whole entry, looked up): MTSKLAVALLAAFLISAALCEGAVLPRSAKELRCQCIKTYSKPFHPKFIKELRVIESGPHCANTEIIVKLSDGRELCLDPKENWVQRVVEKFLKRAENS

For `CCOc1ccc(NCc2cc3c(C(C)(C)C)nn(-c4ccc(Cl)cc4)c3[nH]c2=O)cc1`, the IC50 in experiment [1] (IL8, PAF-induced, run 1) turned out to be 0.216 µM; in experiment [1] (IL8, PAF-induced, run 2) it was 0.248 µM; in experiment [1] (IL8, PAF-induced, run 3), 0.277 µM; in experiment [1] (IL8, PAF-induced, run 4), 0.149 µM; in experiment [1] (IL8, PAF-induced, run 5), 0.236 µM; in experiment [1] (IL8, PAF-induced, run 6), 0.246 µM. Besides, the IC50 in experiment [1] (IL8, TNFa-induced, run 1) was greater than 66 µM; in experiment [1] (IL8, TNFa-induced, run 2), greater than 66 µM; in experiment [1] (IL8, TNFa-induced, run 3) it was greater than 66 µM; in experiment [1] (IL8, TNFa-induced, run 4), greater than 66 µM; in experiment [1] (IL8, TNFa-induced, run 5), greater than 66 µM; in experiment [1] (IL8, TNFa-induced, run 6), greater than 66 µM. Moreover, the IC50 in experiment [2] (PAF-induced) is 0.228 µM; in experiment [2] (TNFa-induced), greater than 66 µM; in experiment [3] (setting [4]), 17.9 µM; in experiment [3] (run 1), 9.61 µM; in experiment [3] (run 2) it was 10.1 µM; in experiment [3] (run 3), 10.2 µM. Besides, the IC50 in experiment [3] (run 4) is greater than 66 µM; in experiment [3] (run 5), 0.52 µM; in experiment [3] (run 6) it was 10.8 µM.
`O=C(Nc1ccc(N2CCN(C(=O)c3ccc(F)cc3)CC2)cc1)c1ccccc1`: the IC50 in experiment [1] (IL8, PAF-induced, run 1) is greater than 66 µM; in experiment [1] (IL8, PAF-induced, run 2) it was greater than 66 µM; in experiment [1] (IL8, PAF-induced, run 3), greater than 66 µM; in experiment [1] (IL8, PAF-induced, run 4), greater than 66 µM; in experiment [1] (IL8, PAF-induced, run 5) it was greater than 66 µM; in experiment [1] (IL8, PAF-induced, run 6) it was greater than 66 µM. Moreover, the concentration for half-maximal inhibition (IC50) in experiment [1] (IL8, TNFa-induced, run 1) was greater than 66 µM; in experiment [1] (IL8, TNFa-induced, run 2) it was greater than 66 µM; in experiment [1] (IL8, TNFa-induced, run 3) it was greater than 66 µM; in experiment [1] (IL8, TNFa-induced, run 4) it was greater than 66 µM; in experiment [1] (IL8, TNFa-induced, run 5) it was greater than 66 µM; in experiment [1] (IL8, TNFa-induced, run 6) it was greater than 66 µM. In addition, the IC50 in experiment [2] (PAF-induced), in experiment [2] (TNFa-induced), in experiment [3] (setting [4]), in experiment [3] (run 1), in experiment [3] (run 2) and in experiment [3] (run 3) was greater than 66 µM each time. Further, the half-maximal inhibitory concentration (IC50) in experiment [3] (run 4), in experiment [3] (run 5) and in experiment [3] (run 6) was greater than 66 µM in each case.
In the case of `Cc1ccc(CNCc2cc3c(C(C)(C)C)nn(-c4ccccc4)c3[nH]c2=O)cc1`, the IC50 came out at 7.97 µM in experiment [1] (IL8, PAF-induced, run 1); 12.8 µM in experiment [1] (IL8, PAF-induced, run 2); 14.6 µM in experiment [1] (IL8, PAF-induced, run 3); 16.6 µM in experiment [1] (IL8, PAF-induced, run 4); 17 µM in experiment [1] (IL8, PAF-induced, run 5); 18.6 µM in experiment [1] (IL8, PAF-induced, run 6). The half-inhibitory concentration (IC50) in experiment [1] (IL8, TNFa-induced, run 1) was greater than 66 µM; in experiment [1] (IL8, TNFa-induced, run 2), greater than 66 µM; in experiment [1] (IL8, TNFa-induced, run 3), greater than 66 µM; in experiment [1] (IL8, TNFa-induced, run 4), greater than 66 µM; in experiment [1] (IL8, TNFa-induced, run 5), greater than 66 µM; in experiment [1] (IL8, TNFa-induced, run 6), greater than 66 µM. Further, the IC50 was 14.6 µM in experiment [2] (PAF-induced); greater than 66 µM in experiment [2] (TNFa-induced); 60 µM in experiment [3] (setting [4]); greater than 66 µM in experiment [3] (run 1); greater than 66 µM in experiment [3] (run 2); greater than 66 µM in experiment [3] (run 3). Further, the IC50 was greater than 66 µM in experiment [3] (run 4), greater than 66 µM in experiment [3] (run 5) and 30.1 µM in experiment [3] (run 6).
As to `CCOc1ccc(NCc2cc3c(-c4ccc(OC)c(OC)c4)nn(-c4ccccc4)c3[nH]c2=O)cc1`, the concentration for half-maximal inhibition (IC50) in experiment [1] (IL8, PAF-induced, run 1) stood at 1.25 µM; in experiment [1] (IL8, PAF-induced, run 2), 1.71 µM; in experiment [1] (IL8, PAF-induced, run 3), 1.85 µM; in experiment [1] (IL8, PAF-induced, run 4), 1.33 µM; in experiment [1] (IL8, PAF-induced, run 5) it was 1.66 µM; in experiment [1] (IL8, PAF-induced, run 6), 1.89 µM. Besides, the IC50 in experiment [1] (IL8, TNFa-induced, run 1) is greater than 66 µM; in experiment [1] (IL8, TNFa-induced, run 2) it was greater than 66 µM; in experiment [1] (IL8, TNFa-induced, run 3), greater than 66 µM; in experiment [1] (IL8, TNFa-induced, run 4), greater than 66 µM; in experiment [1] (IL8, TNFa-induced, run 5) it was greater than 66 µM; in experiment [1] (IL8, TNFa-induced, run 6), greater than 66 µM. Further, the half-inhibitory concentration (IC50) in experiment [2] (PAF-induced) is 1.62 µM; in experiment [2] (TNFa-induced) it was greater than 66 µM; in experiment [3] (setting [4]), 25.2 µM; in experiment [3] (run 1), 18.7 µM; in experiment [3] (run 2), 44.7 µM; in experiment [3] (run 3), 48 µM. Further, the concentration for half-maximal inhibition (IC50) stood at 10.4 µM in experiment [3] (run 4), 12.9 µM in experiment [3] (run 5) and 16.3 µM in experiment [3] (run 6).
As for `O=C(Nc1ccc(N2CCN(C(=O)c3ccc(F)cc3)CC2)cc1)c1ccncc1`, the IC50 in experiment [1] (IL8, PAF-induced, run 1) is greater than 66 µM; in experiment [1] (IL8, PAF-induced, run 2), greater than 66 µM; in experiment [1] (IL8, PAF-induced, run 3), greater than 66 µM; in experiment [1] (IL8, PAF-induced, run 4) it was greater than 66 µM; in experiment [1] (IL8, PAF-induced, run 5) it was greater than 66 µM; in experiment [1] (IL8, PAF-induced, run 6), greater than 66 µM. For the same compound, the concentration for half-maximal inhibition (IC50) was greater than 66 µM in experiment [1] (IL8, TNFa-induced, run 1); greater than 66 µM in experiment [1] (IL8, TNFa-induced, run 2); greater than 66 µM in experiment [1] (IL8, TNFa-induced, run 3); greater than 66 µM in experiment [1] (IL8, TNFa-induced, run 4); greater than 66 µM in experiment [1] (IL8, TNFa-induced, run 5); greater than 66 µM in experiment [1] (IL8, TNFa-induced, run 6). Also, the IC50 in experiment [2] (PAF-induced), in experiment [2] (TNFa-induced), in experiment [3] (setting [4]), in experiment [3] (run 1), in experiment [3] (run 2) and in experiment [3] (run 3) was greater than 66 µM in each case. The IC50 in experiment [3] (run 4), in experiment [3] (run 5) and in experiment [3] (run 6) was greater than 66 µM in each case.

Source of the values: PubChem BioAssay AID651592 (Sanford-Burnham Center for Chemical Genomics, 2012).
